Read-outs that look alike come from different tables or passages of the source.
Key:
Test in all cases: microbe, parasite or virus in culture
Assay type in all cases: cell-based
[1] = tested on: HCV 3a RLuc cells (NS5A chimeric genotype 1b Con1 replicon with consensus genotype 3a NS5A gene); conditions: Hepatitis C virus
Description: (§1) Evaluation of cell-based anti-HCV activity: Antiviral potency (EC50) was determined using a Renilla luciferase (RLuc)-based HCV replicon reporter assay. To perform the assay for genotype 1 and 2a JFH-1, HCV 1b RLuc cells (harboring a dicistronic genotype 1b Con1 replicon that encodes a RLuc reporter), or HCV 1a RLuc cells (harboring a dicistronic genotype 1a H77 replicon that encodes a RLuc reporter), or HCV 2a JFH-1 Rluc cells (harboring a dicistronic genotype 2a JFH-1 replicon that encodes a RLuc reporter) were dispensed into 384-well plates. To perform the assay for genotype 2a (with M31 present) or 2b, HCV 2a Rluc or 2b Rluc cells (both with M31 present) harboring a dicistronic NS5A chimeric genotype 2a JFH-1 replicon that encodes a RLuc reporter and either genotype 2a J6 strain NS5A gene or genotype 2b MD2b-1 NS5A gene (based on Los Alamos HCV database isolates, both with M31 present) respectively, were dispensed into 384-well plates. To perform the assay for genotype 3 and 4, HCV 3a RLuc or 4a Rluc cells harboring a dicistronic NS5A chimeric genotype 1b Con1 replicon that encodes a RLuc reporter and either a consensus genotype 3a NS5A gene or genotype 4a NS5A gene (based on Los Alamos HCV database isolates) respectively, were dispensed into 384-well plates. Compounds were re-suspended in DMSO at a concentration of 10 mM and serially diluted in DMSO either manually or using an automated pipeting instrument. Serially diluted compounds were mixed with cell culture media and added to the seeded cells. […] 72 hours later, cells were lysed and Renilla luciferase activity quantified as recommended by the manufacturer (Promega-Madison, Wis.). Non-linear regression was performed to calculate EC50 values.

[2] = tested on: HCV 1b RLuc cells (dicistronic genotype 1b Con1 replicon, RLuc reporter); conditions: Hepatitis C virus, read-out: 1b (nM)
Description: as §1

[3] = tested on: HCV 1a RLuc cells (dicistronic genotype 1a H77 replicon, RLuc reporter); conditions: Hepatitis C virus, genotype 1a H77 replicon, read-out: 1a
Description: as §1

[4] = tested on: HCV 2a JFH-1 Rluc cells (dicistronic genotype 2a JFH-1 replicon, RLuc reporter); conditions: Hepatitis C virus, genotype 2a JFH-1 replicon, read-out: 2a JFH
Description: as §1

[5] = read-out: 3a, genotype 3a NS5A chimeric 1b Con1 replicon
[6] = read-out: 3a, Table 2, genotype 3a NS5A chimeric replicon

Row | Structure (SMILES) | EC50 [1, 5] [nM] | EC50 [2] [nM] | EC50 ([3]; RLuc reporter) [nM] | EC50 ([4]; RLuc reporter) [nM] | EC50 [1, 6] [nM] | EC50 ([2]; 72 h) [nM] | EC50 ([3]; 72 h, Table 2, 72 hours) [nM] | EC50 ([4]; 72 h, Table 2, 72 hours) [nM]
1 | COC(=O)N[C@H](C(=O)N1CCC[C@H]1c1ncc(-c2ccc(-c3ccc4cc(-c5cnc([C@@H]6CCCN6C(=O)[C@@H](NC(=O)OC)C(C)C)[nH]5)ccc4c3)cc2)[nH]1)c1ccccc1Cl [Example 103] | 0.001 to 0.99 | 0.007 | 0.001 to 0.999 | 0.001 to 0.999 |  |  |  | 
2 | CCN(C1CC1)[C@@H](C(=O)N1CCC[C@H]1c1nc(-c2ccc(-c3ccc4cc(-c5c[nH]c([C@@H]6CCCN6C(=O)[C@@H](NC(=O)OC)C(C)C)n5)ccc4c3)cc2)c[nH]1)c1ccccc1 [Example 168] | 0.001 to 0.99 | 0.01 | 1 to 44 | 1 to 44 |  |  |  | 
3 | COC(=O)N[C@H](C(=O)N1CCC[C@H]1c1ncc(-c2ccc3cc(-c4ccc(-c5cnc([C@@H]6C[C@@H](C)CN6C(=O)[C@H](NC(=O)OC)c6ccccc6)[nH]5)cc4)ccc3c2)[nH]1)C1CCOCC1 [Example 188] | 0.001 to 0.99 | 0.012 | 0.001 to 0.999 | 0.001 to 0.999 |  |  |  | 
4 | COC(=O)NC(C(=O)N1CCC[C@H]1c1ncc(-c2ccc3cc(-c4ccc(-c5cnc([C@@H]6CCCN6C(=O)[C@@H](NC(=O)OC)C(C)C)[nH]5)cc4)ccc3c2)[nH]1)c1ccc(OC(F)(F)F)cc1 (stereo partly shown) [Example 111] | > 5 | 0.16 | 1 to 44 | > 44 |  |  |  | 
5 | COC(=O)N[C@H](C(=O)N1CCC[C@H]1c1ncc(-c2ccc3cc(-c4ccc(-c5cnc([C@@H]6C[C@H](C)CN6C(=O)[C@H](NC(=O)OC)c6ccccc6)[nH]5)cc4)ccc3c2)[nH]1)C(C)C [Example 32] |  |  |  |  | > 5 | 0.02 | 0.001 to 0.999 | 0.001 to 0.999
6 | COC(=O)N[C@H](C(=O)N1C[C@H](C)C[C@H]1c1ncc(-c2ccc3cc(-c4ccc(-c5cnc([C@@H]6CCCN6C(=O)[C@H](NC(=O)OC)c6ccccc6OC)[nH]5)cc4)ccc3c2)[nH]1)C(C)C [Example 147] | 0.001 to 0.99 | 0.012 | 0.001 to 0.999 | 0.001 to 0.999 |  |  |  | 
7 | COC(=O)N[C@H](C(=O)N1CCC[C@H]1c1nc2c([nH]1)-c1ccc(-c3ccc4cc(-c5cnc([C@@H]6CCCN6C(=O)[C@H](NC(=O)OC)c6ccccc6)[nH]5)ccc4c3)cc1CC2)C(C)C [Example 210] | 0.001 to 0.99 | 0.008 | 0.001 to 0.999 | 0.001 to 0.999 |  |  |  | 
8 | COC(=O)N[C@H](C(=O)N1CCC[C@H]1c1nc(-c2ccc(-c3ccc4cc(C5=CNC([C@@H]6CCCN6C(=O)[C@H](NC(=O)OC)c6ccccc6)N5)ccc4c3)cc2)c[nH]1)C1CCOCC1 (stereo partly shown) [Example 178] | 0.001 to 0.99 | 0.024 | 0.001 to 0.999 | 0.001 to 0.999 |  |  |  | 
9 | COC(=O)N[C@H](C(=O)N1CCC[C@H]1c1ncc(-c2ccc(-c3ccc4cc(-c5cnc([C@@H]6CCCN6C(=O)C(c6ccccc6)N(C)C)[nH]5)ccc4c3)cc2)[nH]1)C(C)C (stereo partly shown) [Example 110] | 0.001 to 0.99 | 0.009 | 0.001 to 0.999 | 0.001 to 0.999 |  |  |  | 
10 | COC(=O)N[C@H](C(=O)N1CCC[C@H]1c1ncc(-c2ccc(-c3ccc4cc(-c5cnc([C@@H]6CCCN6C(=O)C(c6ccccc6)N6CCOCC6)[nH]5)ccc4c3)cc2)[nH]1)C(C)C (stereo partly shown) [Example 120] | 0.001 to 0.99 | 0.014 | 0.001 to 0.999 | 0.001 to 0.999 |  |  |  | 
11 | COC(=O)N[C@H](C(=O)N1CCC[C@H]1c1ncc(-c2ccc(-c3ccc(-c4ccc(-c5cnc([C@@H]6CCCN6C(=O)[C@H](NC(=O)OC)c6ccccc6)[nH]5)cc4)cc3)cc2)[nH]1)C(C)C [Example 192] | 0.001 to 0.99 | 0.004 | 0.001 to 0.999 | 0.001 to 0.999 |  |  |  | 
12 | COC(=O)N[C@H](C(=O)N1C[C@H](C)C[C@H]1c1ncc(-c2cc3cc4sc(-c5cnc([C@@H]6C[C@@H](C)CN6C(=O)[C@@H](NC(=O)OC)C(C)C)[nH]5)cc4cc3s2)[nH]1)C(C)C [Example 121] | 1 to 4.99 | 0.011 | 0.001 to 0.999 | 0.001 to 0.999 |  |  |  | 
13 | COC(=O)N[C@H](C(=O)N1CCC[C@H]1c1nc(-c2ccc3cc(-c4ccc(-c5cnc([C@@H]6CCCN6C(=O)[C@@H](c6ccccc6)N(C)C)[nH]5)cc4)ccc3c2)c[nH]1)C(C)C [Example 31] |  |  |  |  | 0.001 to 0.99 | 0.014 | 0.001 to 0.999 | 0.001 to 0.999
